Results from ChEMBL document CHEMBL2375290, “Nonclassical antifolates, part 3: synthesis, biological evaluation and molecular modeling study of some new 2-heteroarylthio-quinazolin-4-ones” (Eur J Med Chem, 2013).

Experiments:
NCI-H226 = assay: Cytotoxicity against human NCI-H226 cells at 10 uM after 48 hrs by coulter counter analysis; type: functional; conditions: NCI-H226, 48 h, read-out: GI
A549 = assay: Cytotoxicity against human A549/ATCC cells at 10 uM after 48 hrs by coulter counter analysis; type: functional; conditions: A549, 48 h, read-out: GI
NCI-H23 = assay: Cytotoxicity against human NCI-H23 cells at 10 uM after 48 hrs by coulter counter analysis; type: functional; conditions: NCI-H23, 48 h, read-out: GI
UACC-62 = assay: Cytotoxicity against human UACC62 cells at 10 uM after 48 hrs by coulter counter analysis; type: functional; conditions: UACC-62, 48 h, read-out: GI
Hs-578T = assay: Cytotoxicity against human Hs578T cells at 10 uM after 48 hrs by coulter counter analysis; type: functional; conditions: read-out: GI
A498 = assay: Cytotoxicity against human A498 cells at 10 uM after 48 hrs by coulter counter analysis; type: functional; conditions: A498, 48 h, read-out: GI
NCI-H522 = assay: Cytotoxicity against human NCI-H522 cells at 10 uM after 48 hrs by coulter counter analysis; type: functional; conditions: NCI-H522, 48 h, read-out: GI
IGROV-1 = assay: Cytotoxicity against human IGROV1 cells at 10 uM after 48 hrs by coulter counter analysis; type: functional; conditions: IGROV-1, 48 h, read-out: GI
Bacillus subtilis = assay: Antimicrobial activity against Bacillus subtilis at 200 ug after 24 hrs by agar disc diffusion method; type: functional; conditions: read-out: DIZ
T47D = assay: Cytotoxicity against human T47D cells at 10 uM after 48 hrs by coulter counter analysis; type: functional; conditions: read-out: GI
HL-60(TB) = assay: Cytotoxicity against human HL-60(TB) cells at 10 uM after 48 hrs by coulter counter analysis; type: functional; conditions: HL-60, 48 h, read-out: GI
RPMI-8226 = assay: Cytotoxicity against human RPMI8226 cells at 10 uM after 48 hrs by coulter counter analysis; type: functional; conditions: RPMI-8226, 48 h, read-out: GI
CCRF-CEM = assay: Cytotoxicity against human CCRF-CEM cells at 10 uM after 48 hrs by coulter counter analysis; type: functional; conditions: read-out: GI
PC-3 = assay: Cytotoxicity against human PC3 cells at 10 uM after 48 hrs by coulter counter analysis; type: functional; conditions: PC-3, 48 h, read-out: GI
SNB-19 = assay: Cytotoxicity against human SNB19 cells at 10 uM after 48 hrs by coulter counter analysis; type: functional; conditions: SNB-19, 48 h, read-out: GI
Micrococcus luteus = assay: Antimicrobial activity against Micrococcus luteus at 200 ug after 24 hrs by agar disc diffusion method; type: functional; conditions: read-out: DIZ
[1] = Cytotoxicity against human EKVX cells at 10 uM after 48 hrs by coulter counter analysis; type: functional; conditions: read-out: GI
UO-31 = assay: Cytotoxicity against human UO31 cells at 10 uM after 48 hrs by coulter counter analysis; type: functional; conditions: UO-31, 48 h, read-out: GI
SR = assay: Cytotoxicity against human SR cells at 10 uM after 48 hrs by coulter counter analysis; type: functional; conditions: read-out: GI
OVCAR-4 = assay: Cytotoxicity against human OVCAR4 cells at 10 uM after 48 hrs by coulter counter analysis; type: functional; conditions: OVCAR-4, 48 h, read-out: GI
SN12C = assay: Cytotoxicity against human SN12C cells at 10 uM after 48 hrs by coulter counter analysis; type: functional; conditions: read-out: GI
Malme-3M = assay: Cytotoxicity against human MALME-3M cells at 10 uM after 48 hrs by coulter counter analysis; type: functional; conditions: read-out: GI
MOLT-4 = assay: Cytotoxicity against human MOLT4 cells at 10 uM after 48 hrs by coulter counter analysis; type: functional; conditions: MOLT-4, 48 h, read-out: GI
CAKI-1 = assay: Cytotoxicity against human Caki1 cells at 10 uM after 48 hrs by coulter counter analysis; type: functional; conditions: CAKI-1, 48 h, read-out: GI
SF-295 = assay: Cytotoxicity against human SF295 cells at 10 uM after 48 hrs by coulter counter analysis; type: functional; conditions: SF-295, 48 h, read-out: GI
Staphylococcus aureus = assay: Antimicrobial activity against Staphylococcus aureus at 200 ug after 24 hrs by agar disc diffusion method; type: functional; conditions: read-out: DIZ
SNB-75 = assay: Cytotoxicity against human SNB75 cells at 10 uM after 48 hrs by coulter counter analysis; type: functional; conditions: SNB-75, 48 h, read-out: GI
Escherichia coli = assay: Antimicrobial activity against Escherichia coli at 200 ug after 24 hrs by agar disc diffusion method; type: functional; conditions: read-out: DIZ
Pseudomonas aeruginosa = assay: Antimicrobial activity against Pseudomonas aeruginosa at 200 ug after 24 hrs by agar disc diffusion method; type: functional; conditions: read-out: DIZ
RXF 393 = assay: Cytotoxicity against human RXF393 cells at 10 uM after 48 hrs by coulter counter analysis; type: functional; conditions: RXF 393, 48 h, read-out: GI
LOX IMVI = assay: Cytotoxicity against human LOXIMVI cells at 10 uM after 48 hrs by coulter counter analysis; type: functional; conditions: read-out: GI
MCF7 = assay: Cytotoxicity against human MCF7 cells at 10 uM after 48 hrs by coulter counter analysis; type: functional; conditions: MCF7, 48 h, read-out: GI
MDA-MB-231 = assay: Cytotoxicity against human MDA-MB-231 cells at 10 uM after 48 hrs by coulter counter analysis; type: functional; conditions: MDA-MB-231, 48 h, read-out: GI
[2] = Cytotoxicity against human NCI-ADR-RES cells at 10 uM after 48 hrs by coulter counter analysis; type: functional; conditions: read-out: GI
SK-MEL-5 = assay: Cytotoxicity against human SK-MEL-5 cells at 10 uM after 48 hrs by coulter counter analysis; type: functional; conditions: SK-MEL-5, 48 h, read-out: GI
MDA-MB-435 = assay: Cytotoxicity against human MDA-MB-435 cells at 10 uM after 48 hrs by coulter counter analysis; type: functional; conditions: MDA-MB-435, 48 h, read-out: GI
Dihydrofolate reductase = molecular target: T1, Dihydrofolate reductase (Bos taurus, UniProt P00376); assay: Inhibition of bovine DHFR after 2 mins by spectrophotometry
T1 sequence (P00376 whole entry): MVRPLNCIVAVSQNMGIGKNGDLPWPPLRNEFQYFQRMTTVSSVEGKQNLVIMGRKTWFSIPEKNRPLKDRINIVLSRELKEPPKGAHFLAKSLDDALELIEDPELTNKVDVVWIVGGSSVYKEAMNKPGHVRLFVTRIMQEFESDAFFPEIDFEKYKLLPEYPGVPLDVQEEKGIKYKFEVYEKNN

SMILES	inhibition of growth at 10 µM (NCI-H226) [%]	inhibition of growth at 10 µM (A549) [%]	inhibition of growth at 10 µM (NCI-H23) [%]	inhibition of growth at 10 µM (UACC-62) [%]	inhibition of growth at 10 µM (Hs-578T) [%]	inhibition of growth at 10 µM (A498) [%]	inhibition of growth at 10 µM (NCI-H522) [%]	inhibition of growth at 10 µM (IGROV-1) [%]	zone of inhibition at 200 µg/disc (Bacillus subtilis) [mm]	inhibition of growth at 10 µM (T47D) [%]	inhibition of growth at 10 µM (HL-60(TB)) [%]	inhibition of growth at 10 µM (RPMI-8226) [%]	inhibition of growth at 10 µM (CCRF-CEM) [%]	inhibition of growth at 10 µM (PC-3) [%]	inhibition of growth at 10 µM (SNB-19) [%]	zone of inhibition at 200 µg/disc (Micrococcus luteus) [mm]	zone of inhibition at 200 µg/disc (Staphylococcus aureus) [mm]	zone of inhibition at 200 µg/disc (Escherichia coli) [mm]	zone of inhibition at 200 µg/disc (Pseudomonas aeruginosa) [mm]	IC50 (Dihydrofolate reductase) [µM]	further results
Cc1ccc2nc(Sc3ncccc3C(=O)O)n(Cc3ccccc3)c(=O)c2c1	21.2	< 10	< 10	30.4	12.5	11.4	24.4	16.3	16	< 10	< 10	25.8	16.5	32.8	14.2	12	15	8	8	10	inhibition of growth at 10 µM [1]: 26.6%; inhibition of growth at 10 µM (UO-31): 20.6%; inhibition of growth at 10 µM (SR): 14.4%; inhibition of growth at 10 µM (OVCAR-4): 16.2%; inhibition of growth at 10 µM (SN12C): 11.2%; inhibition of growth at 10 µM (Malme-3M): < 10%; inhibition of growth at 10 µM (MOLT-4): 15.3%; inhibition of growth at 10 µM (CAKI-1): 41.2%; inhibition of growth at 10 µM (SF-295): 14.2%; inhibition of growth at 10 µM (SNB-75): 30%; inhibition of growth at 10 µM (RXF 393): 21.5%; inhibition of growth at 10 µM (LOX IMVI): 13.8%; inhibition of growth at 10 µM (MCF7): 16.6%; inhibition of growth at 10 µM (MDA-MB-231): 30.5%; inhibition of growth at 10 µM [2]: 12.7%; inhibition of growth at 10 µM (SK-MEL-5): 14.4%; inhibition of growth at 10 µM (MDA-MB-435): 21.8%
CCOC(=O)c1nc(N)sc1Sc1nc2cc(OC)c(OC)cc2c(=O)n1Cc1ccccc1									20							8	18	8	8	2	
O=C(O)c1cccnc1Sc1nc2ccc(Cl)cc2c(=O)n1Cc1ccccc1	18.4	< 10	< 10	16.7	< 10	< 10	13.1	14.7	18	14.1	< 10	16.3	17.8	25.2	< 10	8	14	8	8	10	inhibition of growth at 10 µM [1]: 25.4%; inhibition of growth at 10 µM (UO-31): 20.3%; inhibition of growth at 10 µM (SR): 32.8%; inhibition of growth at 10 µM (OVCAR-4): 20.6%; inhibition of growth at 10 µM (SN12C): < 10%; inhibition of growth at 10 µM (Malme-3M): < 10%; inhibition of growth at 10 µM (MOLT-4): 16.7%; inhibition of growth at 10 µM (CAKI-1): 30.3%; inhibition of growth at 10 µM (SF-295): 15.7%; inhibition of growth at 10 µM (SNB-75): 18.4%; inhibition of growth at 10 µM (RXF 393): < 10%; inhibition of growth at 10 µM (LOX IMVI): 13.6%; inhibition of growth at 10 µM (MCF7): < 10%; inhibition of growth at 10 µM (MDA-MB-231): 24.7%; inhibition of growth at 10 µM [2]: < 10%; inhibition of growth at 10 µM (SK-MEL-5): < 10%; inhibition of growth at 10 µM (MDA-MB-435): < 10%
Cc1ccc2nc(Sc3cc([N+](=O)[O-])ccc3C(=O)O)n(-c3ccccc3)c(=O)c2c1									8							8	8	8	8	10	
Cc1ccc2nc(Sc3cnc(N)s3)n(Cc3ccccc3)c(=O)c2c1	19.9	< 10	< 10	12.2	< 10	< 10	< 10	21.8	8	< 10	< 10	16.8	< 10	22.6	< 10	8	8	8	8	1	inhibition of growth at 10 µM [1]: 25.9%; inhibition of growth at 10 µM (UO-31): 29.4%; inhibition of growth at 10 µM (SR): < 10%; inhibition of growth at 10 µM (OVCAR-4): < 10%; inhibition of growth at 10 µM (SN12C): < 10%; inhibition of growth at 10 µM (Malme-3M): 12.3%; inhibition of growth at 10 µM (MOLT-4): < 10%; inhibition of growth at 10 µM (CAKI-1): 30.3%; inhibition of growth at 10 µM (SF-295): 17.3%; inhibition of growth at 10 µM (SNB-75): 20.4%; inhibition of growth at 10 µM (RXF 393): < 10%; inhibition of growth at 10 µM (LOX IMVI): 10.4%; inhibition of growth at 10 µM (MCF7): 10.8%; inhibition of growth at 10 µM (MDA-MB-231): 15.2%; inhibition of growth at 10 µM [2]: < 10%; inhibition of growth at 10 µM (SK-MEL-5): < 10%; inhibition of growth at 10 µM (MDA-MB-435): < 10%
